Biological target: T1, VLA4 (Homo sapiens, UniProt P05556+P13612)
T1 construct: endogenous in cells; host or cells: Ramos cells
Assay: Inhibition of VLA4-dependent adhesion to BSA-CS1 (labelled Ramos cells)
Assay type: cell-based
Details: binding of BCECF-AM labelled Ramos cells to CS1 peptide-coated wells, 2 mM MnCl2, 30 minutes at room temperature; IC50 range
Description: For example, the cell adhesion inhibitory activity of these compounds may be measured by determining the concentration of inhibitor required to block the binding of VLA-4-expressing cells to fibronectin- or CS1-coated plates. In this assay microtiter wells are coated with either fibronectin (containing the CS-1 sequence) or CS-1. If CS-1 is used, it must be conjugated to a carrier protein, such as bovine serum albumin, in order to bind to the wells. Once the wells are coated, varying concentrations of the test compound are then added together with appropriately labelled, VLA-4-expressing cells. Alternatively, the test compound may be added first and allowed to incubate with the coated wells prior to the addition of the cells. The cells are allowed to incubate in the wells for at least 30 minutes. Following incubation, the wells are emptied and washed. Inhibition of binding is measured by quantitating the fluorescence or radioactivity bound to the plate for each of the various concentrations of test compound, as well as for controls containing no test compound.
VLA-4-expressing cells that may be utilized in this assay include Ramos cells, Jurkat cells, A375 melanoma cells, as well as human peripheral blood lymophocytes (PBLs). The cells used in this assay may be fluorescently or radioactively labelled.
This assay was used to assess the potency of VLA4-directed inhibitory compounds of this invention.
We dissolved BSA-SMCC (Pierce Chemical, Rockford, Ill.; Catalog # 77115) in H2O at a concentration of 10 mg/mL. [SEQ ID NO:4]: […](“Cys-Tyr-CS1 peptide”), which we synthesized by conventional solid phase chemistry and purified by HPLC, was dissolved in 10 mM HEPES pH 5, 50 mM NaCl and 0.1 mM EDTA also at a concentration of 10 mg/mL. We then mixed 500 μL of BSA-SMCC, 250 μL of Cys-Tyr-CS1 peptide and 75 μL of […] and allowed the conjugation reaction to proceed for 30 minutes. We stopped the reaction by adding 1 μL of beta-mercaptoethanol. Samples were analyzed for cross-linking by SDS-PAGE. This reaction produced multiple molecules of the Cys-Tyr-CS1 peptide conjugate to each BSA molecule.
We coated the wells of a Linbro titertek polystyrene 96-well flat bottom plate (Flow Laboratories, Maclean, Va.; catalog #76-231-05) with 100 μL of the above-described BSA-CS1 solution diluted to 1 μg/mL in 0.05 M NaHCO3 (15 mM NaHCO3, 35 mM Na2CO3) pH 9.2. Some wells were not coated with CS1 in order to assess non-specific cell binding (NSB). The plate was then incubated overnight at 4° C.
Following this incubation, the contents of the wells were removed by inverting and blotting the plate. All of the wells were then blocked with 100 μL of 1% BSA in PBS, 0.02% NaN3, for a minimum of one hour at room temperature.
3. Preparation of Fluorescently Labelled Ramos Cells Ramos cells are grown, maintained and labelled in RPMI 1640 culture medium containing 1% BSA. Just prior to running the assay, we added 2′,7′-bis-(2-carboxyethyl)5 (and -6) carboxyfluorescein acetoxymethyl ester (“BCECF-AM”; Molecular Probes Inc., Eugene, Oreg.; catalog #B-1150) to a final concentration of 2 μM to a culture of Ramos cells (4×10^6 cells/mL). We incubated the cells for 20 minutes at 37° C.
Following labelling, the cells were washed twice in assay buffer (24 mM TRIS, 137 mM NaCl, 2.7 mM KCl, pH 7.4, containing 0.1% BSA and 2 mM glucose) to remove any cations originating from the culture medium. The cells were then resuspended in assay buffer to 4×10^6 cells/mL and 2 mM MnCl2 was added to upregulate VLA4 on the surface of the cells.
Immediately prior to running the assay, we removed the BSA blocking solution from the 96-well plates and washed the wells with 100 μL of assay buffer. We then added to each well 25 μL of test cell adhesion inhibitory compound at 2× the final concentration and 25 μL of the labelled Ramos cells. Final concentrations were selected across a range of anticipated IC50s, usually between 0.01 nM–10 μM. […]

T1 sequence (P13612 34-1032): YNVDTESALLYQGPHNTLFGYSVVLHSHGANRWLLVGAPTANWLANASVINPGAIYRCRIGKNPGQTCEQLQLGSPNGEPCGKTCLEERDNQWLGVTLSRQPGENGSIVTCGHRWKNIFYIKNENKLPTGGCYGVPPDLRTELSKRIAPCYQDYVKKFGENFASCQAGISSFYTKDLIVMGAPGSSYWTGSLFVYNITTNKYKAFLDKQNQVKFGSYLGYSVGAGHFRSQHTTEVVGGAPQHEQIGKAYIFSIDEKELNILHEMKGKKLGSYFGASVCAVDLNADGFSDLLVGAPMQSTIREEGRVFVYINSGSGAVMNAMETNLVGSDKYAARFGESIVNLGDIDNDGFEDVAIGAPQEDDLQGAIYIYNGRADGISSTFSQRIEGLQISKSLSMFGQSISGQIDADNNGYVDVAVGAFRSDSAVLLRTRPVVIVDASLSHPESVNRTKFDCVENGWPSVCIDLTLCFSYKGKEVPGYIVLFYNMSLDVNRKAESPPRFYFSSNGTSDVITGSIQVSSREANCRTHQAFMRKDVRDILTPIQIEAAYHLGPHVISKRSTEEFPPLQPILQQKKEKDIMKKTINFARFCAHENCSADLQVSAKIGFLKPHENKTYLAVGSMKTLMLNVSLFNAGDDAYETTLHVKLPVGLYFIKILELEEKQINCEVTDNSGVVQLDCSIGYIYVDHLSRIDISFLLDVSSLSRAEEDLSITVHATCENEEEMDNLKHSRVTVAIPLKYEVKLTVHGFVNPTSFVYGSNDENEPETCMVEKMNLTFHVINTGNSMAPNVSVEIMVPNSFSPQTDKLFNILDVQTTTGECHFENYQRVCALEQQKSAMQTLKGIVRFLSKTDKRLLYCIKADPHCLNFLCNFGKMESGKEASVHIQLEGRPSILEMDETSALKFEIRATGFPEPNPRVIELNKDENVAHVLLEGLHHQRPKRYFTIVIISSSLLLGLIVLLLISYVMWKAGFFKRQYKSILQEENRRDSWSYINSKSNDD
T1 sequence (P05556 21-798): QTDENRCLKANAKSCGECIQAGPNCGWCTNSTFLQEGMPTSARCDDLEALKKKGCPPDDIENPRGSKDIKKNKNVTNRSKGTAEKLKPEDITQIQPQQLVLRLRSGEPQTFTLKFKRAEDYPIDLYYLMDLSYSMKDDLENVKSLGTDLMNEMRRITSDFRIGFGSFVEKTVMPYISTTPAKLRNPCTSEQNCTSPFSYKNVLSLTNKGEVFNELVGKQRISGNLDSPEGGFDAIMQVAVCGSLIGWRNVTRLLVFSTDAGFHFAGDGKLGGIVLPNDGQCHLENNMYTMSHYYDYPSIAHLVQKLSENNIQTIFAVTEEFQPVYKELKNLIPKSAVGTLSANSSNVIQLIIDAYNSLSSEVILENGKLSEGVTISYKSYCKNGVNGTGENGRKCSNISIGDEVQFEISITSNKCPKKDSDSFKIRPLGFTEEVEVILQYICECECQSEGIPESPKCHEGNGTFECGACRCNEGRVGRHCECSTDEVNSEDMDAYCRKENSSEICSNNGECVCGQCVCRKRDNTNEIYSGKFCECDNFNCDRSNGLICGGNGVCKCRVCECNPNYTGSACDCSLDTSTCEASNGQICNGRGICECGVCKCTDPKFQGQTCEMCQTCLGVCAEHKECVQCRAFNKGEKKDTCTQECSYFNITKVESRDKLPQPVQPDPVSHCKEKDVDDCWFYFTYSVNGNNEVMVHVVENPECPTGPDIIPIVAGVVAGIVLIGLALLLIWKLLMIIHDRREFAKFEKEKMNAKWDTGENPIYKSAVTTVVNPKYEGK

Row | Structure (SMILES) | IC50 [µM]
1 | CC(C)CC(NC(=O)C1(c2ccccc2)CC1)C(=O)NC(CC(=O)O)c1ccccc1 (stereo not drawn) [compound 1017] | > 10
2 | CC(=O)Nc1cccc(CC(=O)NC(CC(C)C)C(=O)NC(CC(=O)O)c2ccccc2)c1 (stereo not drawn) [compound 1018] | > 10
3 | CC(C)CC(NC(=O)Cc1cccc(NC(=O)c2ccccc2)c1)C(=O)NC(CC(=O)O)c1ccccc1 (stereo not drawn) [compound 1020] | > 10
4 | CC(C)CC(NC(=O)Cc1ccc2ccccc2c1)C(=O)NC(CC(=O)O)c1ccccc1 (stereo not drawn) [compound 1022] | > 10
5 | CC(C)CC(NC(=O)Cc1ccccc1N)C(=O)NC(CC(=O)O)c1ccccc1 (stereo not drawn) [compound 1024] | > 10
6 | CC(C)CC(NC(=O)Cc1ccccc1NC(=O)c1ccccc1)C(=O)NC(CC(=O)O)c1ccccc1 (stereo not drawn) [compound 1026] | > 10
7 | CC(C)CC(NC(=O)Cc1ccccc1NC(=O)OCc1ccccc1)C(=O)NC(CC(=O)O)c1ccccc1 (stereo not drawn) [compound 1027] | > 10
8 | CNC(=O)Nc1ccccc1C(=O)Nc1ccc(CC(=O)NC(CC(C)C)C(=O)NC(CC(=O)O)c2ccccc2)cc1 (stereo not drawn) [compound 1029] | > 10
9 | CC(C)CC(NC(=O)Cc1cccc(N)c1)C(=O)NC(CC(=O)O)c1ccccc1 (stereo not drawn) [compound 1030] | > 10
10 | CC(C)CC(NC(=O)Cc1cccc(NC(=O)OCc2ccccc2)c1)C(=O)NC(CC(=O)O)c1ccccc1 (stereo not drawn) [compound 1031] | > 10
11 | CC(C)CC(NC(=O)Cc1cccc(NS(=O)(=O)c2ccccc2)c1)C(=O)NC(CC(=O)O)c1ccccc1 (stereo not drawn) [compound 1032] | > 10
12 | CCCC(NC(=O)Cc1ccccc1)C(=O)NC(CC(=O)O)c1ccccc1 (stereo not drawn) [compound 1038] | > 10

Other lines, results leading:

Row | IC50 [µM] | Structure (SMILES)
13 | > 10 | CC(C)CC(NC(=O)Cc1ccccn1)C(=O)NC(CC(=O)O)c1ccccc1 (stereo not drawn) [compound 1004]
14 | > 10 | CC(C)CC(NC(=O)Cc1cccnc1)C(=O)NC(CC(=O)O)c1ccccc1 (stereo not drawn) [compound 1005]
15 | 0.05 to 10 | CC(C)CC(NC(=O)Cc1ccc(O)cc1)C(=O)NC(CC(=O)O)c1ccc2c(c1)OCO2 (stereo not drawn) [compound 1006]
16 | > 10 | CC(C)CC(NC(=O)Cc1ccncc1)C(=O)NC(CC(=O)O)c1ccccc1 (stereo not drawn) [compound 1007]
17 | > 10 | CC(C)CC(NC(=O)c1ccccc1)C(=O)NC(CC(=O)O)c1ccccc1 (stereo not drawn) [compound 1008]
18 | > 10 | CC(C)CC(NC(=O)Cc1ccc(-c2ccccc2)cc1)C(=O)NC(CC(=O)O)c1ccccc1 (stereo not drawn) [compound 1009]
19 | 0.05 to 10 | CC(C)CC(NC(=O)Cc1ccc(Cl)cc1)C(=O)NC(CC(=O)O)c1ccccc1 (stereo not drawn) [compound 1010]
20 | > 10 | CC(C)CC(NC(=O)Cc1ccc(C(F)(F)F)cc1)C(=O)NC(CC(=O)O)c1ccccc1 (stereo not drawn) [compound 1011]
21 | > 10 | CC(C)CC(NC(=O)c1c[nH]c2ccccc12)C(=O)NC(CC(=O)O)c1ccccc1 (stereo not drawn) [compound 1014]
22 | 0.05 to 10 | CC(C)CC(NC(=O)Cc1ccc(NC(=O)c2ccccc2)cc1)C(=O)NC(CC(=O)O)c1ccccc1 (stereo not drawn) [compound 1015]
23 | > 10 | CC(C)CC(NC(=O)Cc1ccc(N)cc1)C(=O)NC(CC(=O)O)c1ccccc1 (stereo not drawn) [compound 1016]
24 | 0.05 to 10 | CC(C)CC(NC(=O)Cc1cccc2ccccc12)C(=O)NC(CC(=O)O)c1ccccc1 (stereo not drawn) [compound 1021]
25 | 0.05 to 10 | CC(C)CC(NC(=O)Cc1ccc(NC(=O)Cc2ccccc2)cc1)C(=O)NC(CC(=O)O)c1ccccc1 (stereo not drawn) [compound 1023]
26 | 0.05 to 10 | CC(C)CC(NC(=O)Cc1ccc(NC(=O)c2ccccc2N)cc1)C(=O)NC(CC(=O)O)c1ccccc1 (stereo not drawn) [compound 1028]
27 | 0.05 to 10 | CC(C)CC(NC(=O)Cc1ccccc1)C(=O)NC(CC(=O)O)c1ccc2c(c1)CCC2 (stereo not drawn) [compound 1036]
28 | 0.05 to 10 | O=C(O)CC(NC(=O)C(Cc1nccs1)NC(=O)Cc1ccc(NC(=O)Nc2ccccc2)cc1)c1ccccc1 (stereo not drawn) [compound 1037]
29 | 0.05 to 10 | CCCCC(NC(=O)Cc1ccccc1)C(=O)NC(CC(=O)O)c1ccccc1 (stereo not drawn) [compound 1039]
30 | 0.05 to 10 | CCC(C)C(NC(=O)Cc1ccccc1)C(=O)NC(CC(=O)O)c1ccccc1 (stereo not drawn) [compound 1040]

Reference: patent US7001921B1, “Cell adhesion inhibitors” (Biogen Idec MA Inc., priority 1995, dated 2006)
